# Literature values, collected in publication PMC4110205 (Toxicology and applied pharmacology, 2014).
# Target: T1, hFMO2.1 (Homo sapiens, UniProt Q99518)
# T1 sequence (Q99518 1-535): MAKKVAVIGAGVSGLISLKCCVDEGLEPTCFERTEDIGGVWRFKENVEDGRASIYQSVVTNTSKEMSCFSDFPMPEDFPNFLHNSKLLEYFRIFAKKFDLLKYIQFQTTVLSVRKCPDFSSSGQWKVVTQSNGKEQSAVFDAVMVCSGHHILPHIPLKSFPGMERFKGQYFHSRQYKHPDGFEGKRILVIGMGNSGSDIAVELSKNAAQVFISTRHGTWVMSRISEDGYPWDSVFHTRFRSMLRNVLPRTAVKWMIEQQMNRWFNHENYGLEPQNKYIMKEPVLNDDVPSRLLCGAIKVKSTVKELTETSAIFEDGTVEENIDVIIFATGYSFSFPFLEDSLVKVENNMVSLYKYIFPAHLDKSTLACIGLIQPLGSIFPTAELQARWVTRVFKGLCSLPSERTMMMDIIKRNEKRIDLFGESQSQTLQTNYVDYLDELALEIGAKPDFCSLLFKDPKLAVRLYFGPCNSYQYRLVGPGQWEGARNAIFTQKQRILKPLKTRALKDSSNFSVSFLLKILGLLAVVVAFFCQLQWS
# Conditions: expressed hFMO2; ref Henderson et al., 2004
SMILES,Km,kcat
S=C1NCCN1 [ethylenethiourea],14 µM,0.8 s⁻¹
NC(=S)Nc1cccc2ccccc12 [α-naphthylthiourea],42 µM,0.55 s⁻¹
NC(=S)Nc1ccccc1 [phenylthiourea],29 µM,0.4 s⁻¹
NC(N)=S [Thiourea],27 µM,0.85 s⁻¹
